Source: article PMC7759012 (Biochemistry, 2020)

What was measured:
Type in all cases: binding
[1] = molecular target: BirA (E. coli biotin protein ligase; BirA wt) (Escherichia coli, UniProt P06709, E313A); assay: ITC, direct titration, single-site model
[2] = molecular target: BirA (E. coli biotin protein ligase; BirA wt) (Escherichia coli, UniProt P06709, K183A); assay: ITC, direct titration, single-site model
[3] = molecular target: BirA (E. coli biotin protein ligase; BirA wt) (Escherichia coli, UniProt P06709, R118A); assay: ITC, direct titration, single-site model
[4] = molecular target: BirA (E. coli biotin protein ligase; BirA wt) (Escherichia coli, UniProt P06709); assay: ITC, TAPS, proton linkage; conditions: pH 6.0; 10 mM Bistris, citrate or MES with 200 mM KCl, 2.5 mM MgCl2

SMILES | Kd [1] | Kd [2] | Kd [3] | ITC, TAPS, proton linkage (enthalpy only) [4]
Nc1ncnc2c1ncn2[C@@H]1O[C@H](COP(=O)(O)OC(=O)CCCC[C@@H]2SC[C@@H]3NC(=O)N[C@@H]32)[C@@H](O)[C@H]1O [bio-5'-AMP] | 10 nM | 22 nM | 1.3 nM | 
Nc1ncnc2c1ncn2[C@@H]1O[C@H](COP(=O)(O)OCCCCC[C@@H]2SC[C@@H]3NC(=O)N[C@@H]32)[C@@H](O)[C@H]1O [btnOH-AMP] |  |  |  | btnOH-AMP binding to BirA^wt is linked to proton release
